Values of other authors in paper PMC7221964 (Molecules, 2020).
Like-named read-outs stand apart in the source and are kept apart here.

Test system: epigenetic reader proteins
Text: ITC studies provided thermodynamic parameters (Gibbs free energy of binding ΔG°, enthalpy of binding ΔH°, entropy of binding ΔS°) for the association between five ...

Structure (SMILES) | recognition by reader proteins (different epigenetic reader proteins) | recognition by reader proteins (panel of the same five reader proteins)
C[N+](C)(C)CCSCC(N)C(=O)O (centres unmarked) [KCme3, trimethylthialysine] | well recognized | 
C[N+](C)(C)CCCCCC(N)C(=O)O (centres unmarked) [trimethylhomolysine] |  | very well recognized
